Assays:
[1] = target: T1, SIK1 (Homo sapiens, UniProt P57059); assay: ADP-Glo kinase assay, SIK1; type: biochemical; details: ADP-Glo SIK kinase assay
T1 construct: purchased Carna Biosciences 02-131
In short: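 Enzyme–substrate mix was started with ATP and incubated 120 min at RT. ADP formed was quantified by ADP-Glo: 40 min ATP depletion, then 30 min detection reagent converting ADP to ATP for luciferase luminescence, which rises with kinase activity. Controls: 1% DMSO and 10 μM staurosporine (final).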

[2] = target: T2, SIK2 (Homo sapiens, UniProt Q9H0K1); assay: ADP-Glo kinase assay, SIK2; type: biochemical; details: ADP-Glo SIK kinase assay
T2 construct: purchased ThermoFisher Scientific PV4792
In short: (§1)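 ADP-Glo luminescent assay of ADP formed by SIK2 or SIK3 with substrate after ATP addition, 120 min at RT. Remaining ATP depleted 40 min, then ADP converted to ATP and read by luciferase luminescence after 30 min. Controls: 1% DMSO and 10 μM staurosporine (final).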

[3] = target: T3, SIK3 (Homo sapiens, UniProt Q9Y2K2); assay: ADP-Glo kinase assay, SIK3; type: biochemical; details: ADP-Glo SIK kinase assay
T3 construct: purchased SignalChem S12-11G-100
In short: as §1

[4] = tested on: LPS-induced TNFα in monocytes; assay: Monocytes assay: LPS-triggered TNFα (ELISA); type: cell-based, human; details: Homo sapiens, Monocyte, LPS 200 ng/mL, supernatant after 4 h
In short: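 Supernatant TNFα was quantified by luminol-based sandwich ELISA after 4 h stimulation with LPS (200 ng/mL final). The cells were CD14-bead-purified monocytes from human PBMCs, 100 000 per well, exposed to 3-fold compound dilutions for 1 h at 37° C beforehand, with DMSO at 0.2%. Results are reported as percent inhibition.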

[5] = tested on: LPS triggered IL-10 secretion in monocytes; assay: Monocytes assay: LPS-triggered IL-10 (ELISA); type: cell-based, human; details: LPS 200 ng/mL, supernatant after 4 h, maximal fold change vs LPS only
In short: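 Human CD14+ monocytes, magnetically isolated from buffy-coat PBMCs, were seeded at 100 000 cells/well and preincubated with compound for 1 h at 37° C (0.2% DMSO). LPS was then added at a final 200 ng/mL for 4 h. Supernatant IL-10 was quantified by chemiluminescent sandwich ELISA against a standard curve.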

T1 sequence (P57059 whole entry): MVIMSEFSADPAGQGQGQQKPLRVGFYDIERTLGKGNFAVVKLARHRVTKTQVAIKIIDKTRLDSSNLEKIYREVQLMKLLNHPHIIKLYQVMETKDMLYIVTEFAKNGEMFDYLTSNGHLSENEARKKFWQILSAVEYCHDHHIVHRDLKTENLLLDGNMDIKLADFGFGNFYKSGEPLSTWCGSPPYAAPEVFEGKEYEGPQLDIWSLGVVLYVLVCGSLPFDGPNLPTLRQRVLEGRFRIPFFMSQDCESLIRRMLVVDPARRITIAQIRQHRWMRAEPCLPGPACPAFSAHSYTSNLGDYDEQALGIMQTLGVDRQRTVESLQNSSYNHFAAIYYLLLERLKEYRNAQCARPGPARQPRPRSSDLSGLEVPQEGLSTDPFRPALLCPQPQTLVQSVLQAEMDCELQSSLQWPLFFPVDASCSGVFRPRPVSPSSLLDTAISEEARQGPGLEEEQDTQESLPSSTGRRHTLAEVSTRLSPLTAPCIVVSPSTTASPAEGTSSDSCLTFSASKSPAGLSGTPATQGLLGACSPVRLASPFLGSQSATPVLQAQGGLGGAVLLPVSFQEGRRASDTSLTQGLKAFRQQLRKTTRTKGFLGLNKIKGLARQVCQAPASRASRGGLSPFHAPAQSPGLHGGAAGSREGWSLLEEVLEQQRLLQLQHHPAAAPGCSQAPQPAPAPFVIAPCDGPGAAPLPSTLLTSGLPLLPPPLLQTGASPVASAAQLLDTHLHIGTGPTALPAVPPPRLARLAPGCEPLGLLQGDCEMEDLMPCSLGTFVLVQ
T3 sequence (Q9Y2K2 whole entry): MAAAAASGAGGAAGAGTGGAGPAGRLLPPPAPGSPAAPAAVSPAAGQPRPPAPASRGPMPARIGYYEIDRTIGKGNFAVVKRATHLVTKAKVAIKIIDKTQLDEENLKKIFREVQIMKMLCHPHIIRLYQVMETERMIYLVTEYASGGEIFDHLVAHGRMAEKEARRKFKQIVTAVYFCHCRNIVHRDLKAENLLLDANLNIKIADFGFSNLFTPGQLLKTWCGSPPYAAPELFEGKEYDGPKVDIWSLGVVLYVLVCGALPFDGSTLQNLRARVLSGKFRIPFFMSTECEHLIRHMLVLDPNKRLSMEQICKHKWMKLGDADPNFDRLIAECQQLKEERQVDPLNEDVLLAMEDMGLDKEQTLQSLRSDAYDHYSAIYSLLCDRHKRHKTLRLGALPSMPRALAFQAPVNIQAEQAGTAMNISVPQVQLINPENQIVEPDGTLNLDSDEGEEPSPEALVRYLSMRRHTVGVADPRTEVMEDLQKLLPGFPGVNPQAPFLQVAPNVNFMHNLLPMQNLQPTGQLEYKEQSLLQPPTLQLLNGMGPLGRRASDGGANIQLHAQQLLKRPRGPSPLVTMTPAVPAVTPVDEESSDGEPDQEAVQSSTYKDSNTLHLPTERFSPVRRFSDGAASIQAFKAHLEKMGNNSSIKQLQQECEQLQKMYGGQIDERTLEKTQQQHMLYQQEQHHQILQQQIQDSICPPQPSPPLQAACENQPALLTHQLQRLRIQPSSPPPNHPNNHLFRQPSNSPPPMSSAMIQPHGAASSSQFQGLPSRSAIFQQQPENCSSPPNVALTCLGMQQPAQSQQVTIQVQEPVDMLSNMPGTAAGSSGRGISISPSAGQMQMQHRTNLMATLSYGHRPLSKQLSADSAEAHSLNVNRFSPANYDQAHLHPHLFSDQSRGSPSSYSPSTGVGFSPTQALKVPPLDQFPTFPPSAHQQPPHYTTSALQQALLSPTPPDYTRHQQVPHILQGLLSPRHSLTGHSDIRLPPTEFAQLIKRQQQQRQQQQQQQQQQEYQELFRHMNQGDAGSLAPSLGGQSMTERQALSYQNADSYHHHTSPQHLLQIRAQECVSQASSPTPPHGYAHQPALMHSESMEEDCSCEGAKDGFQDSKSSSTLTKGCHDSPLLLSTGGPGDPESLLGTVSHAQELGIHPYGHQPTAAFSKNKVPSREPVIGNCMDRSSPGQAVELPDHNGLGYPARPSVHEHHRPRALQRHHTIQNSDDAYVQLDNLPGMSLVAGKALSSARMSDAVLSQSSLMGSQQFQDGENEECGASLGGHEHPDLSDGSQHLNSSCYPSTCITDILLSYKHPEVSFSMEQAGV
T2 sequence (Q9H0K1 whole entry): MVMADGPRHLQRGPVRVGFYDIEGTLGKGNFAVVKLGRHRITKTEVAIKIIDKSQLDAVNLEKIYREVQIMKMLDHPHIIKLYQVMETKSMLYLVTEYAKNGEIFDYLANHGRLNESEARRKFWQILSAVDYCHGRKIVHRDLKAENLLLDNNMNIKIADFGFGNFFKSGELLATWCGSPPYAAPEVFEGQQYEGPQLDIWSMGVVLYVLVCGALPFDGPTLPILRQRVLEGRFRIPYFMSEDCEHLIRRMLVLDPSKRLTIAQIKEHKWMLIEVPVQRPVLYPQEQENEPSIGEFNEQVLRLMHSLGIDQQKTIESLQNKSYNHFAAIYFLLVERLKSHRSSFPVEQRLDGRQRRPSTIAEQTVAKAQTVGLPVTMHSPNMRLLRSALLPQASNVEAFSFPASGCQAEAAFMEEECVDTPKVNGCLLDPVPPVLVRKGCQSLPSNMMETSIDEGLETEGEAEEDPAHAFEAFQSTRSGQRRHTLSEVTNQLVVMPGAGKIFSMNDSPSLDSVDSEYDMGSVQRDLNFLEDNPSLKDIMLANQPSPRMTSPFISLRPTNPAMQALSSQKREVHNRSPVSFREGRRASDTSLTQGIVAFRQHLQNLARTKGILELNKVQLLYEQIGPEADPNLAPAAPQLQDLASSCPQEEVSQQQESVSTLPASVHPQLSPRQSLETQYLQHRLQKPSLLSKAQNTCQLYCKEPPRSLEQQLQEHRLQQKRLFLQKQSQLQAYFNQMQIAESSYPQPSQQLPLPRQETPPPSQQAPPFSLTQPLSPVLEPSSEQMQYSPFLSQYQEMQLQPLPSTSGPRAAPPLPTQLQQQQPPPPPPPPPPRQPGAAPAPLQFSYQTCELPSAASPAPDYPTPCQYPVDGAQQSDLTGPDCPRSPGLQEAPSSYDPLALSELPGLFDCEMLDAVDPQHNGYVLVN

Compound	IC50 [1] [nM]	IC50 [2] [nM]	IC50 [3] [nM]	EC50 ([4]; 4 h) [nM]	IL-10 FCmax median [5]	EC50 [4] [nM]
COc1cc(-c2cnc3cc(OC[C@@H]4CCN(CCO)C4)ccn23)cc(OC(F)F)c1C(=O)NC1CC1 [Cpd 349, N-cyclopropyl-2-(difluoromethoxy)-4-[7-[[(3R)-1-(2-hydroxyethyl)pyrrolidin-3-yl]methoxy]imidazo[1,2-a]pyridin-3-yl]-6-methoxy-benzamide]	10 to 100	0.01 to 10	0.01 to 10	100 to 1000	+++ (>4.5)	–
COc1cc(-c2cnc3cc(OCCCN4CCCCC4)ccn23)cc(OC(F)F)c1C(=O)NCC#N [compound 356, N-(cyanomethyl)-2-(difluoromethoxy)-6-methoxy-4-[7-[3-(1-piperidyl)propoxy]imidazo[1,2-a]pyridin-3-yl]benzamide]	10 to 100	0.01 to 10	0.01 to 10	100 to 1000	+++ (>4.5)	–
COc1cc(-c2cnc3cc(OCCCN4CCCCC4)ccn23)cc(OC(F)F)c1C(=O)N1CC(O)(C(F)(F)F)C1 [compound 354, [2-(difluoromethoxy)-6-methoxy-4-[7-[3-(1-piperidyl)propoxy]imidazo[1,2-a]pyridin-3-yl]phenyl]-[3-hydroxy-3-(trifluoromethyl)azetidin-1-yl]methanone]	10 to 100	0.01 to 10	0.01 to 10	100 to 1000	+++ (>4.5)	–
COc1cc(-c2cnc3cc(OCC4CN(CCC#N)C4)ccn23)cc(OC(F)F)c1C(=O)NC1CC1 [Cpd 323, 4-[7-[[1-(2-cyanoethyl)azetidin-3-yl]methoxy]imidazo[1,2-a]pyridin-3-yl]-N-cyclopropyl-2-(difluoromethoxy)-6-methoxy-benzamide]	10 to 100	0.01 to 10	0.01 to 10	0.1 to 100	+++ (>4.5)	–
COC(=O)[C@@H]1CN(CC(O)COc2ccn3c(-c4cc(OC)c(C(=O)NC5CC5)c(OC(F)F)c4)cnc3c2)CCO1 (stereo partly drawn) [compound 388, methyl (2S)-4-[3-[3-[4-(cyclopropylcarbamoyl)-3-(difluoromethoxy)-5-methoxy-phenyl]imidazo[1,2-a]pyridin-7-yl]oxy-2-hydroxy-propyl]morpholine-2-carboxylate]	10 to 100	0.01 to 10	0.01 to 10	100 to 1000	+++ (>4.5)	–
CCOC(=O)CN1[C@@H]2CC[C@H]1CC(Oc1ccn3c(-c4cc(OC)c(C(=O)NC5CC5)c(OC(F)F)c4)cnc3c1)C2 (stereo partly drawn) [compound 272, ethyl 2-[(1R,5S)-3-[3-[4-(cyclopropylcarbamoyl)-3-(difluoromethoxy)-5-methoxy-phenyl]imidazo[1,2-a]pyridin-7-yl]oxy-8-azabicyclo[3.2.1]octan-8-yl]acetate]	100 to 500	10 to 100	10 to 100	–	+++ (>4.5)	0.1 to 100
COc1cc(-c2cnc3cc(OCCCN4CC(C)(O)C4)ccn23)cc(OC(F)F)c1C(=O)NC1CC1 [compound 362, N-cyclopropyl-2-(difluoromethoxy)-4-[7-[3-(3-hydroxy-3-methyl-azetidin-1-yl)propoxy]imidazo[1,2-a]pyridin-3-yl]-6-methoxy-benzamide]	10 to 100	0.01 to 10	0.01 to 10	100 to 1000	++ (>1.5-4.5)	–
COc1cc(-c2cnc3cc(OCCCN4CCS(=N)(=O)CC4)ccn23)cc(OC(F)F)c1C(=O)NC1CC1 [compound 327, N-cyclopropyl-2-(difluoromethoxy)-4-[7-[3-(1-imino-1-oxo-1,4-thiazinan-4-yl)propoxy]imidazo[1,2-a]pyridin-3-yl]-6-methoxy-benzamide]	10 to 100	0.01 to 10	0.01 to 10	100 to 1000	+++ (>4.5)	–
COc1cc(-c2cnc3cc(OCCCN4CCC45COC5)ccn23)cc(OC(F)F)c1C(=O)NC1CC1 [compound 300, N-cyclopropyl-2-(difluoromethoxy)-6-methoxy-4-[7-[3-(6-oxa-1-azaspiro[3.3]heptan-1-yl)propoxy]imidazo[1,2-a]pyridin-3-yl]benzamide]	10 to 100	0.01 to 10	0.01 to 10	0.1 to 100	+++ (>4.5)	–
CCOC(=O)C1CCN(CCCOc2ccn3c(-c4cc(OC)c(C(=O)NC5CC5)c(OC(F)F)c4)cnc3c2)CC1 [compound 377, ethyl 1-[3-[3-[4-(cyclopropylcarbamoyl)-3-(difluoromethoxy)-5-methoxy-phenyl]imidazo[1,2-a]pyridin-7-yl]oxypropyl]piperidine-4-carboxylate]	10 to 100	0.01 to 10	0.01 to 10	0.1 to 100	++ (>1.5-4.5)	–
COc1cc(-c2cnc3cc(OCCCN4CCC(F)(F)C(O)C4)ccn23)cc(OC(F)F)c1C(=O)NC1CC1 (centres unmarked) [compound 344, N-cyclopropyl-4-[7-[3-(4,4-difluoro-3-hydroxy-1-piperidyl)propoxy]imidazo [1,2-a]pyridin-3-yl]-2-(difluoromethoxy)-6-methoxy-benzamide]	10 to 100	0.01 to 10	0.01 to 10	0.1 to 100	++ (>1.5-4.5)	–
COc1cc(-c2cnc3cc(OCC4CCN(C(C)C)C4)ccn23)cc(OC(F)F)c1C(=O)NC1CC1 (centres unmarked) [Cpd 287, N-cyclopropyl-2-(difluoromethoxy)-4-[7-[(1-isopropylpyrrolidin-3-yl)methoxy]imidazo[1,2-a]pyridin-3-yl]-6-methoxy-benzamide]	10 to 100	0.01 to 10	0.01 to 10	0.1 to 100	++ (>1.5-4.5)	–
COc1cc(-c2cnc3cc(OCCCN4CCCC5(COC5)C4)ccn23)cc(OC(F)F)c1C(=O)NC1CC1 [compound 303, N-cyclopropyl-2-(difluoromethoxy)-6-methoxy-4-[7-[3-(2-oxa-8-azaspiro[3.5]nonan-8-yl)propoxy]imidazo[1,2-a]pyridin-3-yl]benzamide]	10 to 100	0.01 to 10	0.01 to 10	0.1 to 100	+++ (>4.5)	–
COc1cc(-c2cnc3cc(OC[C@@H]4CCCNC4)ccn23)cc(OC(F)F)c1C(=O)NC1CC1 [Cpd 335, N-cyclopropyl-2-(difluoromethoxy)-6-methoxy-4-[7-[[(3R)-3-piperidyl]methoxy]imidazo[1,2-a]pyridin-3-yl]benzamide]	10 to 100	0.01 to 10	0.01 to 10	100 to 1000	+++ (>4.5)	–
CCOC(=O)C1(C)CCN(CC(O)COc2ccn3c(-c4cc(OC)c(C(=O)NC5CC5)c(OC(F)F)c4)cnc3c2)CC1 (centres unmarked) [compound 382, ethyl 1-[3-[3-[4-(cyclopropylcarbamoyl)-3-(difluoromethoxy)-5-methoxy-phenyl]imidazo[1,2-a]pyridin-7-yl]oxy-2-hydroxy-propyl]-4-methyl-piperidine-4-carboxylate]	10 to 100	0.01 to 10	0.01 to 10	0.1 to 100	++ (>1.5-4.5)	–
COc1cc(-c2cnc3cc(OC[C@H]4CCN(C(C)C)C4)ccn23)cc(OC(F)F)c1C(=O)NC1CC1 [compound 316, N-cyclopropyl-2-(difluoromethoxy)-4-[7-[[(3S)-1-isopropylpyrrolidin-3-yl]methoxy]imidazo[1,2-a]pyridin-3-yl]-6-methoxy-benzamide]	10 to 100	0.01 to 10	0.01 to 10	0.1 to 100	+++ (>4.5)	–
COc1cc(-c2cnc3cc(OCCCN4CCC45CCC5)ccn23)cc(OC(F)F)c1C(=O)NC1CC1 [compound 302, 4-[7-[3-(1-azaspiro[3.3]heptan-1-yl)propoxy]imidazo[1,2-a]pyridin-3-yl]-N-cyclopropyl-2-(difluoromethoxy)-6-methoxy-benzamide]	10 to 100	0.01 to 10	0.01 to 10	0.1 to 100	+++ (>4.5)	–
COc1cc(-c2cnc3cc(OCCCN4C(C)CCCC4C)ccn23)cc(OC(F)F)c1C(=O)NC1CC1 (centres unmarked) [compound 290, N-cyclopropyl-2-(difluoromethoxy)-4-[7-[3-(2,6-dimethyl-1-piperidyl)propoxy]imidazo [1,2-a]pyridin-3-yl]-6-methoxy-benzamide]	10 to 100	0.01 to 10	0.01 to 10	0.1 to 100	+++ (>4.5)	–
COc1cc(-c2cnc3cc(OCCCN4CCC(F)(C(=O)O)CC4)ccn23)cc(OC(F)F)c1C(=O)NC1CC1 [Cpd 366, 1-[3-[3-[4-(cyclopropylcarbamoyl)-3-(difluoromethoxy)-5-methoxy-phenyl]imidazo[1,2-a]pyridin-7-yl]oxypropyl]-4-fluoro-piperidine-4-carboxylic acid]	10 to 100	0.01 to 10	0.01 to 10	1000 to 5000	++ (>1.5-4.5)	–

Reference: US12264156B2, “Compounds and pharmaceutical compositions thereof for the treatment of diseases” (GALAPAGOS NV, priority 2018, dated 2025)
